# Assay results: patent US20260001875A1, “AMINOPYRIMIDINYL DERIVATIVES FOR THE TREATMENT OF PARKINSON'S DISEASE” (UNIVERSITY OF DUNDEE, priority 2022, published 2026)
# Key:
# VHL and LRRK2 = target: T1, VHL and LRRK2 (Homo sapiens, UniProt P40337+Q5S007); assay: NanoBRET ternary complex formation assay; type: binding
# T1 construct: host or cells: HEK293 (digitonin-permeabilized), with purified labelled VCB added
# Procedure: VCB was labeled with Bodipy 576/589 following protocol reported previously 76. Briefly, the VCB complex was mixed with Bodipy 576/589 NHS ester in a 20:1 molar ration and incubated at room temperature (protect from light) for 2 h in reaction buffer (0.1 M sodium phosphate, 75 mM KOAc, 2 mM DTT, pH 7.4). The reaction was quenched by diluting 10 times with reaction buffer and the unreacted dye was removed with a PD-10 MiniTrap desalting column (GE Healthcare) equilibrated with 100 mM BisTris pH 7.0, 100 mM NaCl, 1 mM DTT, pH 7. The eluted labeled protein solution was collected and concentrated with Pierce Concentrator, 3K MWCO (Thermo scientific).
# Hek293 cells were transfected with LRRK2-NanoLuc vector (Promega, NV3401) for 24 h, harvested, and resuspended into OptiMEM media without phenol red (Life Technologies). The cells were then seeded into white 384-well plate (Corning3570) at a density of 6000 cells/well. […] Each well was added with NanoBRET NanoGlo Substrate (Promega, N2160) before performing the NanoBRET reading on PHERAstar (BMG LABTECH) plate reader equipped with a 450-nm bandpass filter (donor) and a 600-nm long pass filter (acceptor). […]
# LRRK2 = LRRK2 (Mus musculus, UniProt Q5S006); assay: LRRK2 degradation in bone marrow-derived macrophages; type: cell-based
# Description: Bone marrow isolation and macrophage differentiation was modified from (Wells et al., 2004), employing L929 preconditioned medium as the source of M-CSF for differentiation. Briefly, scissors and forceps were used to dissect femurs and tibiae from adult mice, and muscle tissue was carefully removed from bones. Clean femurs and tibiae were placed in a tissue culture dish containing complete media. The ends of each bone were cut with scissors to expose bone marrow. Bone marrow was flushed with a 25-gauge needle attached to a 10 ml syringe containing complete media. Media containing bone marrow was passed through a 70 μm cell strainer and precursor cells were plated on non-tissue culture treated 10 cm bacteriological plates containing 10 ml complete media. This was marked as day 0 of isolation. On day three post-isolation, macrophages were topped up with 5 ml fresh complete media. On day seven post-isolation, macrophages were rinsed once with PBS and incubated with Versene for 5 minutes in a 37° C. 5% CO2 tissue culture incubator. Macrophages were detached with cell scrapers and were centrifuged at 1200 rpm for 5 minutes at room temperature. The Versene was aspirated and the remaining cell pellet was resuspended in complete media. The cell suspension was counted, and cells were seeded for experimental analysis in a 6-well format, in tissue culture treated dishes at a final cell density of one million cells per 6-well.
# Culturing and passaging of adherent cell lines were carried out using aseptic technique in CL1 or CL2 (for PBMC isolation) biological safety cabinets. All cells were incubated in a 37° C. incubator with 5% CO2. Cell lines were regularly tested for mycoplasma contamination. For western blot assay, the cells were seeded in 6-well plates. […] The cell pellet was discarded, and supernatant was collected for analysis by quantitative immunoblotting. […] Protein concentrations of cell lysates were determined using the Bradford assay. […]
# LRRK2^R1441C = LRRK2^R1441C (Mus musculus, UniProt Q5S006, R1441C); assay: Western blot LRRK2 degradation in LRRK2^R1441C MEFs; type: cell-based; conditions: 4 h treatment
# LRRK2^R1441C, sequence (Q5S006 whole entry R1441C): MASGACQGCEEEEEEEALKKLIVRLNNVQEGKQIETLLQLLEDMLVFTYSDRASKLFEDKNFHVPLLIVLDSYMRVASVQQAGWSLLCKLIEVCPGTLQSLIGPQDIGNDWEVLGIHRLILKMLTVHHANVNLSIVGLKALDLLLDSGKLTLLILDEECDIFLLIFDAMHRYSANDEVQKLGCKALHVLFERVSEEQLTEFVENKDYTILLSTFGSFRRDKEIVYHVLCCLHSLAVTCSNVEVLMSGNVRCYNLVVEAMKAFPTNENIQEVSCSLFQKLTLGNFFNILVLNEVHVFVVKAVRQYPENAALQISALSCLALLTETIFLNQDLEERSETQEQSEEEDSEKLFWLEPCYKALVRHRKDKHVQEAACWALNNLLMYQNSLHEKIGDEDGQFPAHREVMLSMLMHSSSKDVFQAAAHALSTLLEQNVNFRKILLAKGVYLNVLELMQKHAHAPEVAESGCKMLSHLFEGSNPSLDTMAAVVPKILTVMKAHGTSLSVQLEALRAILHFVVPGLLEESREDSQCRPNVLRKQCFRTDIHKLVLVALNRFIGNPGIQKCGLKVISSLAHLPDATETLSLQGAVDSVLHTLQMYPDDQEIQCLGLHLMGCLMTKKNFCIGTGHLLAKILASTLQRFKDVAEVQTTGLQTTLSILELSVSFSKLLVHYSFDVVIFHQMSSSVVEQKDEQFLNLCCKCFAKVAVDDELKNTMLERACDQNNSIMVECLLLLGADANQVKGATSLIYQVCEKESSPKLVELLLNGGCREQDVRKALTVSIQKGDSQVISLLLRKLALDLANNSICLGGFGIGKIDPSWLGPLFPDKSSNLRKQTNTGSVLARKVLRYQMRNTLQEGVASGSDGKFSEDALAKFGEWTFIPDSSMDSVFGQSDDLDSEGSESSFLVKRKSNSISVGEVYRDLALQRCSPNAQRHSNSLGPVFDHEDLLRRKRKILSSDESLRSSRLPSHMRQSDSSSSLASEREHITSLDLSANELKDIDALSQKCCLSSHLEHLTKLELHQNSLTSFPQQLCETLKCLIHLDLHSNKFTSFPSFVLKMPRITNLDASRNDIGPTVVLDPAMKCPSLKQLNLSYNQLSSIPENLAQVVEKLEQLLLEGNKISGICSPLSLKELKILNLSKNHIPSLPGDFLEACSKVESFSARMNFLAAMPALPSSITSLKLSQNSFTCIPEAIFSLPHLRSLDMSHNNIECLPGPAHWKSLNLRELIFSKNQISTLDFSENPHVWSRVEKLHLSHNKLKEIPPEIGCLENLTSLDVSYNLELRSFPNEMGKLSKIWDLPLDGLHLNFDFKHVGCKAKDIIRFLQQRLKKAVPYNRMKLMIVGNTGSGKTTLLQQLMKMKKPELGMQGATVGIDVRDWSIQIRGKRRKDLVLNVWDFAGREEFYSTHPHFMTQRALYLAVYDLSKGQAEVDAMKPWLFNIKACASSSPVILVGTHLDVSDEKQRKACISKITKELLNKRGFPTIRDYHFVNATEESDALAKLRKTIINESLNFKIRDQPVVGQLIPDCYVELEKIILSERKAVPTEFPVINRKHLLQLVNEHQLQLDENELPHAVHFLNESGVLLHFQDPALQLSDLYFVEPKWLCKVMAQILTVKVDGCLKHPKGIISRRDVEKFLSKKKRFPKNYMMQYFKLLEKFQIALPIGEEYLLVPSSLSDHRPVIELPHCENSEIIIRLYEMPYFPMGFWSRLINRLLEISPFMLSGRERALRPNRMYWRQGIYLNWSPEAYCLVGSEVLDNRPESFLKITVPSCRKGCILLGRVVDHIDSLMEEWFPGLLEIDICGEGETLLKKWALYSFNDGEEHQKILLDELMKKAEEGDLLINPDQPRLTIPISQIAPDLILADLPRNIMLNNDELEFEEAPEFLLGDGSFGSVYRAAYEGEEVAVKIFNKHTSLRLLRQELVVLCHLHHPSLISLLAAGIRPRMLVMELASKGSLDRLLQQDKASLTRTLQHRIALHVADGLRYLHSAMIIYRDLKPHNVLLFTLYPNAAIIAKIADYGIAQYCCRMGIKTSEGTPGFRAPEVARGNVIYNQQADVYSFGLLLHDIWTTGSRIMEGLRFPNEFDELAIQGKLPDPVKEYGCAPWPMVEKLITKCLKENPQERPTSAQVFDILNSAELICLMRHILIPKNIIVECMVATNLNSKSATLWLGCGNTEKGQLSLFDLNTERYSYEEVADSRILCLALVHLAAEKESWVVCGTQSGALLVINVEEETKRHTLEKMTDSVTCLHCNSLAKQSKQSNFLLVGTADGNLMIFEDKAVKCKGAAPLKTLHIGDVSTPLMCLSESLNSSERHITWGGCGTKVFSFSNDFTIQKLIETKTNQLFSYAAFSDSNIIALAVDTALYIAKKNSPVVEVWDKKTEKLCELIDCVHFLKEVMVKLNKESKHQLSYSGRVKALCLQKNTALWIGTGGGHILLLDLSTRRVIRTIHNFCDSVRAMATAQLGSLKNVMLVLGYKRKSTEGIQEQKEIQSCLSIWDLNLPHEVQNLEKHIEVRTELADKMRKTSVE
# LRRK2, sequence (Q5S006 whole entry): as the sequence (Q5S006 whole entry R1441C) above, with C1441R counted along it
SMILES,ternary complex formation with VHL and LRRK2 (in words) (VHL and LRRK2),LRRK2 degradation in macrophages (in words) (LRRK2),LRRK2^R1441C degradation (in words) (LRRK2^R1441C),LRRK2 protein level reduced in macrophages (LRRK2),DC50 (LRRK2; dose response),Dmax of LRRK2^R1441C degradation (LRRK2^R1441C; dose response)
"CNc1nc(Nc2ccc(C(=O)N3CCN(C[C@H]4CC[C@H](CSC(C)(C)[C@H](NC(=O)C5(F)CC5)C(=O)N5C[C@@H](O)CC5C(=O)NCc5ccc(-c6scnc6C)cc5)CC4)CC3)cc2OC)ncc1Cl (stereo partly drawn) [Cis-XL01126, (2S,4S)-1-((R)-3-((((1r,4R)-4-((4-(4-((5-chloro-4-(methylamino)pyrimidin-2-yl)amino)-3-methoxybenzoyl)piperazin-1-yl)methyl)cyclohexyl)methyl)thio)-2-(1-fluorocyclopropane-1-carboxamido)-3-methylbutanoyl)-4-hydroxy-N-(4-(4-methylthiazol-5-yl)benzyl)pyrrolidine-2-carboxamide]",cannot form ternary complex,cannot degrade LRRK2,cannot degrade LRRK2^R1441C,,,
"CNc1nc(Nc2ccc(C(=O)N3CCN(C[C@H]4CC[C@H](CSC(C)(C)[C@H](NC(=O)C5(F)CC5)C(=O)N5C[C@H](O)CC5C(=O)NCc5ccc(-c6scnc6C)cc5)CC4)CC3)cc2OC)ncc1Cl (stereo partly drawn) [XL01126, (2S,4R)-1-((R)-3-((((1R,4R)-4-((4-(4-((5-chloro-4-(methylamino)pyrimidin-2-yl)amino)-3-methoxybenzoyl)piperazin-1-yl)methyl)cyclohexyl)methyl)thio)-2-(1-fluorocyclopropane-1-carboxamido)-3-methylbutanoyl)-4-hydroxy-N-(4-(4-methylthiazol-5-yl)benzyl)pyrrolidine-2-carboxamide]",highest ternary complex,,,80-90%,55 nM,80-90%
